Calls of active or inactive are those of the source.
Tests used:
[1] = molecular target: T1, Probable nicotinate-nucleotide adenylyltransferase (Staphylococcus aureus (strain N315), UniProt P65502); type: functional, Staphylococcus aureus subsp. aureus N315; conditions: read-out: IC50_Mean;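 as to IC50 Mean: confirmatory dose-response retesting of NadD inhibitor hits first found in an ultra-high-throughput screen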
[2] = molecular target: T1, Probable nicotinate-nucleotide adenylyltransferase; type: functional, Staphylococcus aureus subsp. aureus N315
[3] = cells; type: functional, cell-based
[4] = cells; type: functional, cell-based; remark: listed apart in the source
[5] = molecular target: T2, Trace amine-associated receptor 1 (Homo sapiens, UniProt Q96RJ0); test: Counterscreen for agonists of the human trace amine associated receptor 1 (hTAAR1): Fluorescence-based cell-based high throughput dose response assay to identify hTAAR1 agonist that also desensitize TAAR1 receptor response.; type: functional
T2 sequence (Q96RJ0 whole entry): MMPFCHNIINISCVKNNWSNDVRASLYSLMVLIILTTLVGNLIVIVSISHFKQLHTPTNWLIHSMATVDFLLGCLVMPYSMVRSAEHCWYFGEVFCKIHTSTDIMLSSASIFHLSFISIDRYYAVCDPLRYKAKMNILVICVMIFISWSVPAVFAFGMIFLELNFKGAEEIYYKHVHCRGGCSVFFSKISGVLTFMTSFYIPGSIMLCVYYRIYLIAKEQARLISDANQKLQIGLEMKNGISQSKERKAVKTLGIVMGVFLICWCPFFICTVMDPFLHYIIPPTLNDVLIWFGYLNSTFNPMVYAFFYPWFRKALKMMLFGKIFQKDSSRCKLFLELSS

[6] = molecular target: T2, Trace amine-associated receptor 1; test: Fluorescence-based cell-based high throughput dose response assay to identify agonists of the human trace amine associated receptor 1 (TAAR1).; type: functional
[7] = Luminescence-based cell-based high throughput dose response assay to identify activators of the DAF-12 from the parasite S. stercoralis (ssDAF-12).; type: functional
[8] = A2780 cell killing – plate reader, dry powder samples, cytotoxicity control, dose response (AID 743046); type: functional, cell-based
[9] = OVCAR8 cell viability loss – plate reader, dry powder samples, PAX8 project, dose response (AID 743197); type: functional, cell-based; conditions: OVCAR-8
[10] = IGROV1 cell killing – plate reader, dry powder samples, PAX8 inhibitor project, dose response (AID 743043); type: functional, cell-based; conditions: IGROV-1
[11] = molecular target: Paired box protein Pax-8 (Homo sapiens, UniProt Q06710); test: PAX8 transcriptional activity inhibition in RMG-I – RMG-I cells, luciferase, cherry-pick, dose response (AID 687027); type: functional, cell-based;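 also: luciferase reporter driven by Pax8 target thyroperoxidase promoter measured by SteadyGlo luminescence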
[12] = OVCAR-3 cell viability loss – plate reader, dry powder samples, PAX8 inhibitor project, dose response (AID 743044); type: functional, cell-based

T1 sequence (P65502 whole entry): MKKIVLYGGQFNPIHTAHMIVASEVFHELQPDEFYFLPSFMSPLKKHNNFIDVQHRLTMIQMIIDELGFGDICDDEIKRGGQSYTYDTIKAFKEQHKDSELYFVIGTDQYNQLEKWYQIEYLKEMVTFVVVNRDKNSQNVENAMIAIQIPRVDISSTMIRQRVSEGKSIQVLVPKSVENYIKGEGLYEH
Sequence of Paired box protein Pax-8 (Q06710 whole entry): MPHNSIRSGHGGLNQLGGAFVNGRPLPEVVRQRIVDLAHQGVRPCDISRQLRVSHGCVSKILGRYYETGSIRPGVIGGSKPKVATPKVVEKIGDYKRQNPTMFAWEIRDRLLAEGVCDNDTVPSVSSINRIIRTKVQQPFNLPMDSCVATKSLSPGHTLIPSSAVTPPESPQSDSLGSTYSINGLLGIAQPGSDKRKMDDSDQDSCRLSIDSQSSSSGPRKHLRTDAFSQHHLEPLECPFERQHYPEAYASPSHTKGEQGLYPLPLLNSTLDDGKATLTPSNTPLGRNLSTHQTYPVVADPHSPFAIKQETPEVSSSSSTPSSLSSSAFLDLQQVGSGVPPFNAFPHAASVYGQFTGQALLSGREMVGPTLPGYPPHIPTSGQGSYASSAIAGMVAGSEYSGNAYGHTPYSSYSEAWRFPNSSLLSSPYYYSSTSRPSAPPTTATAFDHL

Row | SMILES | EC50 [3] | IC50 [4] | IC50 [5] | EC50 [6] | also measured
1 | Cc1ccc(-c2cc(-c3ccccc3Cl)c(C#N)c(N)n2)o1 | – | – | – | – | IC50 [1]: 7.76 µM (active); IC50 [2]: 5.05 µM (active)
2 | COc1ccc(C(c2nnnn2CCc2ccccc2)N2CCN(C3CCCC3)CC2)cc1 (stereo unspecified) | > 29.9 µM (inactive) | > 29.9 µM (inactive) | 8.17 µM (active) | 1.62 µM (active) | –
3 | O=[N+]([O-])c1cc(Cl)ccc1-c1nc(-c2ccccc2)no1 | – | – | – | – | IC50 [7]: > 67.6 µM (inactive)
4 | C[C@@H]1CN([C@H](C)CO)C(=O)c2cc(NC(=O)Nc3ccc(C(F)(F)F)cc3)ccc2O[C@@H](C)CCCCO[C@H]1CN(C)C(=O)Nc1ccc(C(F)(F)F)cc1 | – | – | – | – | AC50 [8]: 34.1 µM (active); AC50 [9]: 52.3 µM (active); AC50 [10]: 63 µM (active); AC50 [11]: 1.89 µM (active); AC50 [12]: 12.4 µM (active)
5 | O=C(N[C@@H](Cc1cccnc1)C(=O)N1CCC[C@H]1C(=O)NCCc1ccccc1Cl)C1CC1 | > 29.9 µM (inactive) | > 29.9 µM (inactive) | 13.6 µM (inactive) | > 9.98 µM (active) | –

Reference: ChEMBL document CHEMBL1201862, “PubChem BioAssay data set” (2004)
